The source made the active and inactive calls. The calls are words filed in the database; no cut-off is given here.
Columns and labels:
[1] = target: T1, Prostaglandin G/H synthase 2 (Homo sapiens, UniProt P35354); experiment: Inhibition of human COX2 assessed as reduction in appearance of oxidized TMPD using arachidonic acid as substrate by colorimetric assay
T1 sequence (P35354 whole entry): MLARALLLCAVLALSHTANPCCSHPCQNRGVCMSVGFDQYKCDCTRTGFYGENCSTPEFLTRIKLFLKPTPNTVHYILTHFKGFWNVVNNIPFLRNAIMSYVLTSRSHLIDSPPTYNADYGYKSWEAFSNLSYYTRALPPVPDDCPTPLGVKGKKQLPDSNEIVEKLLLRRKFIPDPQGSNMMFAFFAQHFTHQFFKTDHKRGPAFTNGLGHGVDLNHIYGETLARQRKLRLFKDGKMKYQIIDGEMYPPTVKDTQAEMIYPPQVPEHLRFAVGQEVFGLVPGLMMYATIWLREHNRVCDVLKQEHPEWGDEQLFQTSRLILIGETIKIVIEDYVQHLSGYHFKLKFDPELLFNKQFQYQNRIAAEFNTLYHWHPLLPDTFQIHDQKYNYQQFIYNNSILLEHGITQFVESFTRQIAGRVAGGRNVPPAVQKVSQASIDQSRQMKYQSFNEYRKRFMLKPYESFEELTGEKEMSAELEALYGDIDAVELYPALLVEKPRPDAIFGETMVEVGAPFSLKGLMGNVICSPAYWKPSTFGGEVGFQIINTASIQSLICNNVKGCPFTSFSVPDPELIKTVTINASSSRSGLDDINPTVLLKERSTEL

[2] = target: T2, Prostaglandin G/H synthase 1 (Homo sapiens, UniProt P23219); experiment: Inhibition of human COX1 assessed as reduction in appearance of oxidized TMPD at 50 uM using arachidonic acid as substrate by colorimetric assay relative to control
T2 sequence (P23219 whole entry): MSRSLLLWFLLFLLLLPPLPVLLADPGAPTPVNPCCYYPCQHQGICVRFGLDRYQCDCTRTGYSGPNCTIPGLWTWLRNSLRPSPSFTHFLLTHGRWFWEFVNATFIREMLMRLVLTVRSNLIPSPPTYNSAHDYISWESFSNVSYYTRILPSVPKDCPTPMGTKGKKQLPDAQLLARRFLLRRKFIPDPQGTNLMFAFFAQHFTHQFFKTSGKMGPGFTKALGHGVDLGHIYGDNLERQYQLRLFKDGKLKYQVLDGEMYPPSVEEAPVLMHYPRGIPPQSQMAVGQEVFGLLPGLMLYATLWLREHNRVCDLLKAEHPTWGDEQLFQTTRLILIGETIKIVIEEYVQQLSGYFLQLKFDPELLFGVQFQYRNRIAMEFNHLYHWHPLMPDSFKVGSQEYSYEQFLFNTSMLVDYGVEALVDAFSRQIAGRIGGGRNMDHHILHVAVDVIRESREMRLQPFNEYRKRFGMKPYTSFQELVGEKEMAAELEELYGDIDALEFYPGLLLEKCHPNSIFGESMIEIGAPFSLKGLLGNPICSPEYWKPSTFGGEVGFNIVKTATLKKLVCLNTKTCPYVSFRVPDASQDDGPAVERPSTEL

Caco-2 [3] = experiment: Cell cycle arrest in human Caco2 cells assessed as accumulation at G2/M-phase at 100 uM after 24 hrs by propidium iodide staining based flow cytometry; format: functional
Caco-2 [4] = experiment: Cell cycle arrest in human Caco2 cells assessed as accumulation at S-phase at 100 uM after 24 hrs by propidium iodide staining based flow cytometry; format: functional
[5] = target: T3, Prostaglandin G/H synthase 2 (Homo sapiens) (UniProt P35354); experiment: Inhibition of human COX2 assessed as reduction in appearance of oxidized TMPD at 50 uM using arachidonic acid as substrate by colorimetric assay relative to control
T3 sequence (whole entry): T1 sequence (P35354 whole entry)

[6] = target: T4, Solute carrier family 2, facilitated glucose transporter member 1 (Homo sapiens, UniProt P11166); experiment: Inhibition of GLUT1-mediated 2NBDG uptake in human Caco2 cells at 0.01 to 0.1 mM after 10 mins by Hoechst 33342 staining based fluorescence assay; format: cell-based; conditions: caco-2, 10 min, 100 µM
T4 sequence (P11166 whole entry): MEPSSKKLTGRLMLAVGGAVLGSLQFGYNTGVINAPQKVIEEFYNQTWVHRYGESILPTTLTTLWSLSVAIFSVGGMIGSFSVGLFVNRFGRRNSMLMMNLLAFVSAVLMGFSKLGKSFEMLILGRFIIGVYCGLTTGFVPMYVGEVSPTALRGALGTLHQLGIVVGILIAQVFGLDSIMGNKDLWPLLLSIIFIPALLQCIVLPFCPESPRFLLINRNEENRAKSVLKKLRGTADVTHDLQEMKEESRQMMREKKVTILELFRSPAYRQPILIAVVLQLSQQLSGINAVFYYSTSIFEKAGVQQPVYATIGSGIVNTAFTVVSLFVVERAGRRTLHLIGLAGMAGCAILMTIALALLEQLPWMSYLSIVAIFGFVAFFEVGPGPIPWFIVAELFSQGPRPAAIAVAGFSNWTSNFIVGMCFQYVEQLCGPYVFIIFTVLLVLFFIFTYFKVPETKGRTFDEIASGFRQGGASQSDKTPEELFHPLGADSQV

[7] = target: T2, Prostaglandin G/H synthase 1; experiment: Inhibition of human COX1 assessed as reduction in appearance of oxidized TMPD using arachidonic acid as substrate by colorimetric assay
[8] = Apparent permeability across apical to basolateral side in human Caco2 cells at 100 uM after 120 mins by UV-Visible spectroscopic method; format: ADME, cell-based; conditions: Caco-2
[9] = target: T4, Solute carrier family 2, facilitated glucose transporter member 1; experiment: Permeability across basolateral to apical side in human Caco2 cells assessed as GLUT1-mediated drug transport by transportability method; format: ADME, cell-based; conditions: Caco-2
[10] = target: T5, GLUT1 (Solute carrier family 2, facilitated glucose transporter member 1) (Homo sapiens, UniProt P11166); experiment: Apparent permeability across basolateral to apical side in human Caco2 cells assessed as GLUT1-mediated drug transport at 100 uM after 120 mins by UV-Visible spectroscopic method; format: ADME, cell-based; conditions: Caco-2
T5 sequence (P11166 whole entry): T4 sequence (P11166 whole entry)

[11] = Chemical stability in pH 7.3 simulated blood fluid at 2.5 mg/ml after 60 mins by HPLC analysis; format: ADME, physicochemical; conditions: pH 7.3, 1 h
[12] = Chemical stability in pH 8.8 simulated gut district fluid at 2.5 mg/ml after 60 mins by HPLC analysis; format: ADME, physicochemical; conditions: buffer, pH 8.8, 1 h
[13] = target: T6, Prostaglandin G/H synthase 1 (Mus musculus) (UniProt P22437); experiment: Inhibition of COX1 in mouse BV2 cells assessed as reduction in LPS-stimulated PGE2 release by measuring PGE2 level at 0.5 uM preincubated for 1 hr followed by LPS addition measured after 48 hrs by immunoassay (reference value: 0.7555 +/- 0.032 ng/ml); format: cell-based
T6 sequence (whole entry): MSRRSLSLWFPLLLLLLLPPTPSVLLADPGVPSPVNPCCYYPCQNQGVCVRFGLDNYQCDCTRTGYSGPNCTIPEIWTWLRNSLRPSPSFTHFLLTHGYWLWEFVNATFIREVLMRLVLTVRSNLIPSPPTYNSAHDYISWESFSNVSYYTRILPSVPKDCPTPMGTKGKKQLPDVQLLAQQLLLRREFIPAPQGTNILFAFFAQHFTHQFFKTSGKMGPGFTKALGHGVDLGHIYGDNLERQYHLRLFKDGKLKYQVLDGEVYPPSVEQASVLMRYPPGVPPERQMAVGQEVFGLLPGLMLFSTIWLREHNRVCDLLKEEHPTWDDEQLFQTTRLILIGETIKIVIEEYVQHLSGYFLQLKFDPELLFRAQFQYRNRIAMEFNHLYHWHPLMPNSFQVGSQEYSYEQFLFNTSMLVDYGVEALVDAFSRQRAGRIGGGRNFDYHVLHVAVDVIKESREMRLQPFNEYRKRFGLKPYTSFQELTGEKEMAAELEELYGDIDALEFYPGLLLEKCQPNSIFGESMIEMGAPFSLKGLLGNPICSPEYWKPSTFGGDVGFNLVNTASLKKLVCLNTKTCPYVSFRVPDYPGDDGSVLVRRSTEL

[14] = target: T6, Prostaglandin G/H synthase 1 (Mus musculus); experiment: Inhibition of COX1 in mouse BV2 cells assessed as reduction in LPS-stimulated PGE2 release by measuring PGE2 level at 10 uM preincubated for 1 hr followed by LPS addition measured after 48 hrs by immunoassay (reference value: 0.7555 +/- 0.032 ng/ml); format: cell-based
[15] = target: T6, Prostaglandin G/H synthase 1 (Mus musculus); experiment: Inhibition of COX1 in mouse BV2 cells assessed as reduction in LPS-stimulated PGE2 release by measuring PGE2 level at 1 uM preincubated for 1 hr followed by LPS addition measured after 48 hrs by immunoassay (reference value: 0.7555 +/- 0.032 ng/ml); format: cell-based
Caco-2 [16] = experiment: Cell cycle arrest in human Caco2 cells assessed as accumulation at G0/G1-phase at 100 uM after 24 hrs by propidium iodide staining based flow cytometry; format: functional
Homo sapiens = species: Homo sapiens; experiment: Selectivity index, ratio of IC50 for inhibition of human COX2 to IC50 for inhibition of human COX1
[17] = Chemical stability in pH 1 simulated gastric fluid at 2.5 mg/ml after 60 mins by HPLC analysis; format: ADME, physicochemical; conditions: simulated gi fluid, pH 1, 1 h
[18] = Retention time of the compound by HPLC analysis; format: physicochemical
[19] = Metabolic stability in rat liver S9 fraction after 30 mins in presence of NADP+ by HPLC analysis; format: ADME, subcellular; conditions: s9, 0.5 h
[20] = target: T4, Solute carrier family 2, facilitated glucose transporter member 1; experiment: Inhibition of GLUT1-mediated 2NBDG uptake in human Caco2 cells at 1 to 10 mM after 10 mins by Hoechst 33342 staining based fluorescence assay; format: cell-based; conditions: caco-2, 10 min, 10000 µM

## COc1ccc(-c2noc(CC(=O)NCCCCC(=O)OC[C@H]3OC(O)[C@H](O)[C@@H](O)[C@H]3O)c2-c2ccc(OC)cc2)cc1 (some centres not stated)
[1]
  IC50: > 50000 nM
[2]
  inhibition: 38%
Caco-2 [3]
  Activity: Active
Caco-2 [4]
  Activity: Active
[5]
  inhibition: 24%
[6]
  inhibition (INH): Active
[7]
  IC50: > 50000 nM
[8]
  Papp A→B at 2 h, 100 µM: 23.3 ×10⁻⁶ cm/s
[9]
  permeability: Permeable
[10]
  Papp B→A at 2 h, 100 µM: 113 ×10⁻⁶ cm/s

## COc1ccc(-c2noc(CC(=O)OC[C@H]3O[C@@H](O)[C@H](O)[C@@H](O)[C@H]3O)c2-c2ccc(OC)cc2)cc1
[11]
  Stability: Stable
[1]
  IC50: 3100 nM
[12]
  Stability: Stable
[13]
  Activity: 0.0086 ng/mL
[2]
  inhibition: 100%
[14]
  Activity: 0.0103 ng/mL
Caco-2 [3]
  Activity: inactive
Caco-2 [4]
  Activity: inactive
[15]
  Activity: 0.0178 ng/mL
[5]
  inhibition: 87%
Caco-2 [16]
  Activity: inactive
[6]
  inhibition (INH): Active
Homo sapiens
  Ratio IC50: 11.5
[17]
  Stability: Stable
[7]
  IC50: 270 nM
[18]
  Retention_time: 7.504 min
[8]
  Papp A→B at 2 h, 100 µM: 38 ×10⁻⁶ cm/s
[19]
  Stability: Stable
[9]
  permeability: Permeable
[10]
  Papp B→A at 2 h, 100 µM: 87.5 ×10⁻⁶ cm/s

## COc1ccc(-c2noc(CC(=O)O)c2-c2ccc(OC)cc2)cc1 [MOFEZOLAC]
[13]
  Activity: 0.0328 ng/mL
[2]
  inhibition: 100%
Caco-2 [3]
  Activity: inactive
Caco-2 [4]
  Activity: inactive
[5]
  inhibition: 38%
Caco-2 [16]
  Activity: inactive
[8]
  Papp A→B at 2 h, 100 µM: 41.4 ×10⁻⁶ cm/s
[9]
  permeability: Permeable
[10]
  Papp B→A at 2 h, 100 µM: 46.1 ×10⁻⁶ cm/s

## OC[C@H]1OC(O)[C@H](O)[C@@H](O)[C@@H]1O (some centres not stated) [DEXTROSE]
[20]
  inhibition (INH): Active

## COc1ccc(-c2noc(CC(=O)NCCCCCCCCCCC(=O)OC[C@H]3OC(O)[C@H](O)[C@@H](O)[C@H]3O)c2-c2ccc(OC)cc2)cc1 (some centres not stated)
[1]
  IC50: 270 nM
[2]
  inhibition: 90%
Caco-2 [3]
  Activity: inactive
Caco-2 [4]
  Activity: inactive
[5]
  inhibition: 64%
Caco-2 [16]
  Activity: inactive
[6]
  inhibition (INH): Active
Homo sapiens
  Ratio IC50: 0.67
[7]
  IC50: 400 nM
[8]
  Papp A→B at 2 h, 100 µM: 16.9 ×10⁻⁶ cm/s
[9]
  permeability: Permeable
[10]
  Papp B→A at 2 h, 100 µM: 58.7 ×10⁻⁶ cm/s
